Laboratory results from ChEMBL document CHEMBL5236603, “Discovery of mobocertinib, a potent, oral inhibitor of EGFR exon 20 insertion mutations in non-small cell lung cancer” (Bioorg Med Chem Lett, 2023).

Key:
[1] = molecular target: Epidermal growth factor receptor (Homo sapiens, UniProt P00533); experiment: Inhibition of […]-induced EGFR phosphorylation in human A549 cells pretreated for 2 hrs followed by EGF stimulation by immune assay; type: cell-based
[2] = Inhibition of mouse EGFR V769_D770insASV mutant stably expressed in mouse BaF3 cells assessed as cell viability incubated for 3 days by Cell Titer-Glo assay; type: cell-based; details: BaF3, 72 h
[3] = Inhibition of mouse EGFR D770_N771insNPG mutant stably expressed in mouse BaF3 cells assessed as cell viability incubated for 3 days by Cell Titer-Glo assay; type: cell-based; details: BaF3, 72 h
[4] = Inhibition of mouse EGFR delE746_A750 mutant stably expressed in mouse BaF3 cells assessed as cell viability incubated for 3 days by Cell Titer-Glo assay; type: cell-based; details: BaF3, 72 h
[5] = Inhibition of mouse EGFR Del-T790M double mutant stably expressed in mouse BaF3 cells assessed as cell viability incubated for 3 days by Cell Titer-Glo assay; type: cell-based; details: BaF3, 72 h
[6] = AUClast in CD-1 mouse at 10 mg/kg, po by LC/MS/MS analysis; type: ADME, organism-based; parameters: dose 10 mg/kg, route po; details: in vivo
[7] = Cmax in CD-1 rat at 10 mg/kg, po by LC/MS/MS analysis; type: ADME, organism-based; parameters: dose 10 mg/kg, route po; details: in vivo
[8] = AUClast in CD-1 rat at 10 mg/kg, po by LC/MS/MS analysis; type: ADME, organism-based; parameters: dose 10 mg/kg, route po; details: in vivo
[9] = Cmax in CD-1 mouse at 10 mg/kg, po by LC/MS/MS analysis; type: ADME, organism-based; parameters: dose 10 mg/kg, route po; details: in vivo
BaF3 [10] = experiment: In vivo antitumor activity against mouse BaF3 cells expressing EGFR exon 20 insertion (ex20ins) ASV implanted in SCID mouse assessed as tumor growth inhibition at 50 mg/kg, po administered for 7 consecutive days; type: functional; details: 168 h, time 7 day, read-out: TGI
BaF3 [11] = experiment: In vivo antitumor activity against mouse BaF3 cells expressing EGFR exon 20 insertion (ex20ins) ASV implanted in SCID mouse assessed as tumor regression at 100 mg/kg, po administered for 7 consecutive days; type: functional; details: time 7 day

Chain of Epidermal growth factor receptor (P00533 whole entry): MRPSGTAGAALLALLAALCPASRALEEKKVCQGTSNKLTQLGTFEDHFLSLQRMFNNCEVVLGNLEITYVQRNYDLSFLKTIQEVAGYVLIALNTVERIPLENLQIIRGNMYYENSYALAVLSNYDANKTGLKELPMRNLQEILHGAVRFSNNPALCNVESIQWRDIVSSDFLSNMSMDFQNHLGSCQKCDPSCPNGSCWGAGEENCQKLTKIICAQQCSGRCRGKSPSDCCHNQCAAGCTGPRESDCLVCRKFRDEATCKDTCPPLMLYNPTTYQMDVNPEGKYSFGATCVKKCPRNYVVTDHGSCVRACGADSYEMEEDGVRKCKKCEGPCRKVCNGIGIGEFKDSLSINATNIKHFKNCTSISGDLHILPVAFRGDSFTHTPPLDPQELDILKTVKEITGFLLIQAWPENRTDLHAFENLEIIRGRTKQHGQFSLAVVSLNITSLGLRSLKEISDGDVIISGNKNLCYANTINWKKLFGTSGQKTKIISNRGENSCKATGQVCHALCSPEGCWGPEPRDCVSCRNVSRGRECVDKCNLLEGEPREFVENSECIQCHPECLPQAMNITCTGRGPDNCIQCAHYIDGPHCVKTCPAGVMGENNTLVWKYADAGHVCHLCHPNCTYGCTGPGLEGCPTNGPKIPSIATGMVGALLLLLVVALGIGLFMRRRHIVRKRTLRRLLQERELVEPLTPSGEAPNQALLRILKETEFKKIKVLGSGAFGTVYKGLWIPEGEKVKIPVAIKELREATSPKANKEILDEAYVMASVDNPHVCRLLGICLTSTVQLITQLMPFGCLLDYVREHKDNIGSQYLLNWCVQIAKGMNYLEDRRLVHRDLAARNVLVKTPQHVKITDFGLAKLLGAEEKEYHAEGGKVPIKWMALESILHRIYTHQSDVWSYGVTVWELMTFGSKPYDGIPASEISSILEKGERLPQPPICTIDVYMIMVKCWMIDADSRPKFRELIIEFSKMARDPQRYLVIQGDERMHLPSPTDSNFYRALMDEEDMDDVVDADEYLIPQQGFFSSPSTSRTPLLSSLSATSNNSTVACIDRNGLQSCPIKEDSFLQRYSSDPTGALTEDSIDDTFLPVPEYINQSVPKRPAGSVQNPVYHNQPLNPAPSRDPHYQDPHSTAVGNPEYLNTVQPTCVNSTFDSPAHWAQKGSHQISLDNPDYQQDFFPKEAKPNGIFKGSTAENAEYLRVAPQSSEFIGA

Row | Structure (SMILES) | IC50 [1] | IC50 [2] | IC50 [3] | IC50 [4] | IC50 [5] | AUC(0-t) [6] | Cmax [7] | AUC(0-t) [8] | Cmax [9] | inhibition in vivo at 50 mg/kg (BaF3 [10]) | Activity (BaF3 [11])
1 | C=CC(=O)Nc1cc(Nc2ncc(Cl)c(-c3cn4c5c(cccc35)OCC4)n2)c(OC)cc1N(C)CCN(C)C | 36 nM | 35 nM | 15 nM |  |  |  |  |  |  |  | 
2 | C=CC(=O)Nc1cc(Nc2ncc(C(=O)NC)c(-c3cn4c5c(cccc35)CCC4)n2)c(OC)cc1N(C)CCN(C)C | 147 nM | 136 nM | 37.6 nM |  |  |  |  |  |  |  | 
3 | C=CC(=O)Nc1cccc(Nc2nc(Nc3ccc(N4CCN(C(C)=O)CC4)cc3OC)ncc2C(F)(F)F)c1 [ROCILETINIB] |  | 883 nM | 179 nM | 25 nM | 9 nM |  |  |  |  |  | 
4 | C=CC(=O)Nc1cc(Nc2nccc(-c3c4n(c5ccccc35)CCOC4)n2)c(OC)cc1N(C)CCN(C)C | 288 nM | 112 nM | 53 nM |  |  | 655 ng·h/mL | 248 ng/mL | 2670 ng·h/mL | 183 ng/mL |  | 
5 | C=CC(=O)Nc1cc(Nc2ncc(C(=O)OC)c(-c3cn4c5c(cccc35)CCC4)n2)c(OC)cc1N(C)CCN(C)C | 40 nM | 22.1 nM | 6.57 nM |  |  | 56 ng·h/mL | 170 ng/mL | 1920 ng·h/mL | 20 ng/mL |  | 
6 | C=CC(=O)Nc1cc(Nc2ncc(-c3cnn(C(C)C)c3)c(-c3cn4c5c(cccc35)CCC4)n2)c(OC)cc1N(C)CCN(C)C | 15 nM | 16 nM | 13 nM |  |  | 353 ng·h/mL | 163 ng/mL | 2020 ng·h/mL | 46 ng/mL |  | 
7 | C=CC(=O)Nc1cc(Nc2ncc(C(=O)OCC)c(-c3cn4c5c(cccc35)CCC4)n2)c(OC)cc1N(C)CCN(C)C | 32 nM | 15 nM | 6.43 nM |  |  | 102 ng·h/mL | 110 ng/mL | 1480 ng·h/mL | 29 ng/mL |  | 
8 | C=CC(=O)Nc1cc(Nc2ncc(C(=O)OC(C)C)c(-c3cn(CC)c4ccccc34)n2)c(OC)cc1N(C)CCN(C)C | 24 nM | 7 nM | 5 nM |  |  | 631 ng·h/mL | 149 ng/mL | 1920 ng·h/mL | 72 ng/mL |  | 
9 | C=CC(=O)Nc1cc(Nc2ncc(C(=O)OC3CCC3)c(-c3cn(C)c4ccccc34)n2)c(OC)cc1N(C)CCN(C)C | 84 nM | 28 nM | 9 nM |  |  |  |  |  |  |  | 
10 | C=CC(=O)Nc1cc(Nc2ncc(C(=O)CC)c(-c3cn4c5c(cccc35)CCC4)n2)c(OC)cc1N(C)CCN(C)C | 23 nM | 17.3 nM | 4.95 nM |  |  |  |  |  |  |  | 
11 | C=CC(=O)Nc1cc(Nc2ncc(-c3ccnn3C)c(-c3cn4c5c(cccc35)CCC4)n2)c(OC)cc1N(C)CCN(C)C | 23 nM | 28 nM | 11 nM |  |  | 884 ng·h/mL | 320 ng/mL | 2950 ng·h/mL | 218 ng/mL |  | 
12 | C=CC(=O)Nc1cc(Nc2nccc(-c3cn4c5c(cccc35)CCC4)n2)c(OC)cc1N(C)CCN(C)C | 405 nM | 197 nM | 54 nM |  |  | 285 ng·h/mL | 126 ng/mL | 466 ng·h/mL | 81 ng/mL |  | 
13 | C=CC(=O)Nc1cc(Nc2nccc(-c3cn4c5c(cccc35)OCC4)n2)c(OC)cc1N(C)CCN(C)C |  | 137 nM | 52 nM |  |  | 438 ng·h/mL | 207 ng/mL | 2680 ng·h/mL | 97 ng/mL |  | 
14 | C=CC(=O)Nc1cc(Nc2ncc(C(=O)OC(C)C)c(-c3cn(C)c4ccccc34)n2)c(OC)cc1N(C)C[C@@H]1CCCN1C | 57 nM | 14 nM | 8 nM |  |  | 643 ng·h/mL | 107 ng/mL | 1390 ng·h/mL | 145 ng/mL | 82% | -51%
15 | C=CC(=O)Nc1cc(Nc2ncc(Cl)c(-c3cnn4ccccc34)n2)c(OC)cc1N(C)CCN(C)C | 95 nM | 59 nM | 32 nM |  |  |  |  |  |  |  | 
16 | C=CC(=O)Nc1cc(Nc2ncc(C(=O)OC)c(-c3cn(C)c4ccccc34)n2)c(OC)cc1N(C)CCN(C)C | 20 nM | 18 nM | 8 nM |  |  | 92 ng·h/mL | 207 ng/mL | 2300 ng·h/mL | 31 ng/mL |  | 
17 | C#Cc1cnc(Nc2cc(NC(=O)C=C)c(N(C)CCN(C)C)cc2OC)nc1-c1cn2c3c(cccc13)CCC2 | 42 nM | 25 nM | 9.8 nM |  |  |  |  |  |  |  | 
18 | C=CC(=O)Nc1cc(Nc2ncc(C(=O)OC(C)C)c(-c3cn4c5c(cccc35)CCC4)n2)c(OC)cc1N(C)CCN(C)C | 39 nM | 12.4 nM | 6.57 nM |  |  |  |  |  |  |  | 
19 | C=CC(=O)Nc1cc(Nc2ncc(Cl)c(-c3c4n(c5ccccc35)CCOC4)n2)c(OC)cc1N(C)CCN(C)C | 2970 nM | 1020 nM | 754 nM |  |  |  |  |  |  |  | 
20 | C=CC(=O)Nc1cc(Nc2ncc(-c3nc(C)no3)c(-c3cn4c5c(cccc35)CCC4)n2)c(OC)cc1N(C)CCN(C)C | 49 nM | 38 nM | 11 nM |  |  | 96 ng·h/mL |  |  | 31 ng/mL |  | 
21 | C=CC(=O)Nc1cc(Nc2ncc(C(=O)OC(C)C)c(-c3cn(C(C)=O)c4ccccc34)n2)c(OC)cc1N(C)CCN(C)C | 79 nM | 4 nM | 3 nM |  |  | 87 ng·h/mL | 16 ng/mL | 38 ng·h/mL | 42 ng/mL |  | 
22 | C=CC(=O)Nc1cc(Nc2ncc(C(=O)OCC(C)C)c(-c3cn(C)c4ccccc34)n2)c(OC)cc1N(C)CCN(C)C | 142 nM | 43 nM | 14 nM |  |  |  |  |  |  |  | 
23 | C=CC(=O)Nc1cc(Nc2ncc(-c3nnco3)c(-c3cn4c5c(cccc35)CCC4)n2)c(OC)cc1N(C)CCN(C)C | 15 nM | 13 nM | 6.2 nM |  |  | 22 ng·h/mL | 38 ng/mL | 427 ng·h/mL | 9 ng/mL |  | 
24 | C=CC(=O)Nc1cc(Nc2nccc(-c3cn(C)c4ccccc34)n2)c(OC)cc1N(C)CCN(C)C [OSIMERTINIB] |  | 158 nM | 53 nM | 6 nM | 7 nM |  | 98 ng/mL |  | 175 ng/mL |  | 
25 | C=CC(=O)Nc1cc(Nc2ncc(C(=O)OCC)c(-c3cn(C)c4ccccc34)n2)c(OC)cc1N(C)CCN(C)C | 19 nM | 13 nM | 6 nM |  |  | 129 ng·h/mL | 113 ng/mL | 1540 ng·h/mL | 45 ng/mL |  | 
26 | CN(C)C/C=C/C(=O)Nc1cc2c(Nc3ccc(F)c(Cl)c3)ncnc2cc1O[C@H]1CCOC1 [AFATINIB] |  | 44 nM | 36 nM | 0.6 nM | 97 nM |  |  |  |  |  | 
27 | C=CC(=O)Nc1cc(Nc2ncc(Cl)c(-c3cn4c5c(cccc35)CCC4)n2)c(OC)cc1N(C)CCN(C)C | 71 nM | 58 nM | 22 nM |  |  |  |  |  |  |  | 
28 | C=CC(=O)Nc1cc(Nc2ncc(C(=O)OC(C)C)c(-c3cn(C4CC4)c4ccccc34)n2)c(OC)cc1N(C)CCN(C)C | 224 nM | 30 nM | 23 nM |  |  |  |  |  |  |  | 
29 | C=CC(=O)Nc1cc(Nc2ncc(-c3ncco3)c(-c3cn4c5c(cccc35)CCC4)n2)c(OC)cc1N(C)CCN(C)C | 45 nM | 29 nM | 9 nM |  |  | 234 ng·h/mL | 86 ng/mL | 1140 ng·h/mL | 57 ng/mL |  | 
